Entries after “also recorded” stand apart in the source; their conditions may differ. Where a SMILES comes first, the peptide text is derived from it. [ ]: non-standard residue; d: D form. dNle = CCCC[C@@H](N)C(=O)O; Ahx = NCCCCCC(=O)O
What was measured:
human HGF = target: T1, human HGF (Homo sapiens, UniProt P14210); experiment: HGF dimerization (PAGE, silver staining); type: biochemical; details: analog 10^−10 M, heparin, 30 minute incubation
T1 construct: purchased R&D Systems (Minneapolis, Minn.)
T1 sequence (P14210 32-728): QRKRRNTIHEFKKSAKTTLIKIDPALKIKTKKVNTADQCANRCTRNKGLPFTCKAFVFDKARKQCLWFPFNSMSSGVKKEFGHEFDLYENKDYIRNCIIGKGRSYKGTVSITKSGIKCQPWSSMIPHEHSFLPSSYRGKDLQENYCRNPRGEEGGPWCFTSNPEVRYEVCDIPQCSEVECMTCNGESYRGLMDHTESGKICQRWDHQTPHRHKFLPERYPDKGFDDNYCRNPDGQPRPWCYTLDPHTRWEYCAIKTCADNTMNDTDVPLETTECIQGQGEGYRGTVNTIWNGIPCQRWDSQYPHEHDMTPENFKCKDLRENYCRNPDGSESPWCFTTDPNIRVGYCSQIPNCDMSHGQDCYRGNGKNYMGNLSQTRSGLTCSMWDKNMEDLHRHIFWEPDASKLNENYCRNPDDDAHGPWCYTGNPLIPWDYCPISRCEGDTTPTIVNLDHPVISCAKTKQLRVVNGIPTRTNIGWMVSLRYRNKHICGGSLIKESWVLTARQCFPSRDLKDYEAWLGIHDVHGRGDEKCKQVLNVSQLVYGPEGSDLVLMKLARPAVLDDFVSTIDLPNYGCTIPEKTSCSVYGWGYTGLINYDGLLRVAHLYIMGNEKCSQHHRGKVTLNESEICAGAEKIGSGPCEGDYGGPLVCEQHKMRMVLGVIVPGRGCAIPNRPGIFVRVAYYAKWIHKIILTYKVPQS
Method: HGF dimerization was assessed using PAGE followed by silver staining (Kawas et al., 2011). Human HGF at a concentration of 0.08 ng/μl with or without 6-AH analogs was incubated with heparin at a final concentration of 5 μg/ml. Loading buffer was then added to each sample and the mixture separated by native PAGE using gradient Criterion XT precast gels (4-12% Bis-Tris; Biorad Laboratories, Hercules, Calif.). Next the gel was silver stained for the detection of the HGF monomers and dimers. Bands were quantitated from digital images using a UVP phosphoimager (Upland, Calif.).

MDCK cells [1] = experiment: HGF-dependent MDCK cell proliferation (MTT); type: cell-based, canine; details: analog 10^−10M, HGF 10 ng/ml, 4 days
Method: 5000 MDCK cells were seeded into the wells of a 96 well plates in 10% FBS DMEM. To induce cellular quiescence, the cells were serum deprived for 24 h prior to initiating the treatments. Following serum starvation, 10 ng/ml HGF alone and with various concentrations of 6-AH analogs or PBS vehicle were added to the media. The cells were allowed to grow under these conditions for 4 days with a daily addition of 6-AH analogs. On the fourth day, 1 mg/ml of […] (MTT, Sigma-Aldrich) prepared in PBS was added to the cells and incubated for 4 h. Dimethyl sulfoxide diluted in a 0.01M glycine buffer was added to solubilize the cell membranes and the absorbance of reduced MTT in the buffer was quantitated at 590 nm using a plate reader (Biotek Synergy 2, Winooski, Vt.). HGF-dependent proliferation was determined by subtracting the basal proliferation (in the absence of HGF) from total proliferation rates in groups containing HGF.

[2] = rat, in vivo, iv, 24 mg/kg
Method: Male Sprague-Dawley rats (250+ g) were allowed food (Harlan Teklad rodent diet) and water ad libitum in our AAALAC certified animal facility. Rats were housed in temperature-controlled rooms with a 12 h light/dark cycle. The right jugular veins of the rats were catheterized with sterile polyurethane Hydrocoat™ catheters (Access Technologies, Skokie, Ill., USA) under ketamine (Fort Dodge Animal Health, Fort Dodge, Iowa, USA) and isoflurane (Vet One™, MWI, Meridian, Id., USA) anesthesia. The catheters were exteriorized through the dorsal skin. The catheters were flushed with heparinized saline before and after blood sample collection and filled with heparin-glycerol locking solution (6 mL glycerol, 3 mL saline, 0.5 mL gentamycin (100 mg/mL), 0.5 mL heparin (10,000 u/mL)) when not used for more than 8 h. The animals were allowed to recover from surgery for several days before use in any experiment, and were fasted overnight prior to the pharmacokinetic experiment. […]
Pharmacokinetic analysis was performed using data from individual rats. The mean and standard deviation (SD) were calculated for the group. Noncompartmental pharmacokinetic parameters were calculated from serum drug concentration-time profiles by use of WinNonlin® software (Pharsight, Mountain View, Calif., USA).

[3] = Blood stability in heparinized rat blood; type: in vitro ADME; details: 37° C.; single phase exponential decay
Method: At the end of each incubation, 20 μL of […]

[4] = test system: B16-F10 murine melanoma cells; experiment: B16-F10 melanoma lung colony formation; type: in vivo, mouse; details: C57BL/6 mice; daily IP 10 μg/kg/day or 100 μg/kg/day, 14 days
Method: Six to eight month old C57BL/6 mice were injected with 400,000 B16-F10 cells in 200 μl PBS by tail vein injection and subsequently received daily intraperitoneal injections of either D-Nle-X-Cys-NH—(CH2)5—CONH2 (10 μg/kg and 100 μg/kg) or a PBS vehicle control. Two weeks later, mice were anesthetized and lungs were perfused with PBS and removed. Photos were taken and lungs were solubilized in 1% Triton x-100, 20 mM Tris, 0.15 M NaCl, 2 mM EDTA, and 0.02% sodium azide. Samples were disrupted by sonication (Mixonix, Farmingdale, N.Y.) and spun. The supernatant was transferred to a 96 well plate and melanin absorbance at […] was measured using a plate reader.

hippocampal neurons [5] = experiment: Whole-cell recordings of mEPSCs in dissociated hippocampal neurons; type: cell-based, rat; details: Dihexa, Hinge 10^−12 M; HGF 10 ng/ml; 5 days
scopolamine treated rats = experiment: Morris water maze, scopolamine amnesia model; type: in vivo, rat; details: for mean latency to find the pedestal: icv, Dihexa, Hinge 300 pmol, scopolamine 70 nmol
Method: Swim speed was determined from these values.

hippocampal neurons [6] = experiment: Dendritic spine counts (spinogenesis) in mRFP-β-actin transfected dissociated hippocampal neurons; type: cell-based, rat
Method: Hippocampal neurons (2×10^5 cells per square cm) were cultured from P1 Sprague Dawley rats on plates coated with poly-L-lysine from Sigma (St. Louis, Mo.; molecular weight 300,000). […] Each experiment was repeated at least three times using independent culture preparations. […] Hippocampal neurons (2×10^5 cells per square centimeter) were cultured from P1-2 Sprague Dawley rats on plates coated with poly-L-lysine from Sigma (St. Louis, Mo.; molecular weight 300,000). Hippocampal neurons were maintained in Neurobasal A media from Invitrogen (Carlsbad, Calif.) supplemented with B27 from Invitrogen, 0.5 mM L-glutamine, and […] cytosine-D-arabinofuranoside from Sigma added at 2 days in vitro. Hippocampal neurons were then cultured a further 3-7 days, at which time they were either transfected or treated with various pharmacological reagents as described in the text or figure legends. Neurons were transfected with mRFP-β-actin on day in vitro 6 […] using LipofectAMINETM 2000 (Invitrogen) according to the manufacturer's protocol. […] On DIV7 the cells were treated with vehicle (H20) or peptides (as described in the text) added to media. […] Five 50 μm long segments of dendrite from at least 10 neurons per data point were analyzed for each data point reported. Each experiment was repeated at least three times using independent culture preparations. […] A target sequence for c-Met was designed using RNAi central design program (see the website located at […].edu/). The target sequence […] NO: 2) was inserted into pSUPER vector (Oligoengine, Seattle Wash.) which drives endogenous production of shRNA under the H1 promoter. The shRNA was transfected into cells using the lipofectamine method described above. Verification of receptor knockdown was done by creating a c-[…]-Myc tagged gene product using the Gateway cloning system (Invitrogen). The Met protein coding sequence was cloned from rat whole brain cDNA using primers obtained from Integrated DNA Technologies, Inc. The amplified product was gel purified and a band corresponding to 190 kDa band excised and cloned into a […] destination vector (Gateway). Hippocampal neurons (2×10^5 cells per square cm) were cultured from P1 Sprague Dawley rats on plates coated with poly-L-lysine from Sigma (St. Louis, Mo.; molecular weight […]).

MDCK cells [7] = experiment: Inhibition of HGF-dependent scattering in MDCK cells; type: cell-based, canine
Method: (§1) MDCK cells were grown to 100% confluency on the coverslips in six-well plates and washed twice with PBS. The confluent coverslips were then aseptically transferred to new six well plates containing 900 μl serum free DMEM. Norleual, Hinge peptide, and/or HGF (20 ng/ml) were added to appropriate wells. Control wells received PBS vehicle. Plates were incubated at 37° C. with 5% CO2 for 48 hours. Media was removed and cells were fixed with methanol. Cells were stained with Diff-Quik Wright-Giemsa (Dade-Behring, Newark, Del.) and digital images were taken. Coverslips were removed with forceps and more digital images were captured. Pixel quantification of images was achieved using Image J and statistics were performed using Prism 5 and InStat v.3.05.
as §1, with “h.” for “hours.”, “Cells were stained with Diff-Quik Wright-Giemsa (Dade-Behring, Newark, Del.) and digital images were taken. Coverslips were removed with forceps and more digital images were captured.” left out, “v.3.05 (GraphPad; San Diego, Calif.).” for “v.3.05.”

Row | Compound | inhibition of HGF dimerization (human HGF) | inhibition of HGF dimerization (human HGF; listed as Tyr) | inhibition of HGF-dependent MDCK cell proliferation (MDCK cells [1]) | Cp^0 [2] [ng/mL] | KE [2] [min⁻¹] | stability t1/2 in heparinized rat blood [3] [h] | inhibition of HGF dimerization (human HGF; listed as Cys) | B16-F10 melanoma lung colonization [4] | mean frequency of mEPSCs (hippocampal neurons [5]) | mean latency to find the pedestal (scopolamine treated rats; day one of training) [s] | mean latency to find the pedestal (scopolamine treated rats; final day of training (day 8)) [s] | mean latency to find the pedestal (scopolamine treated rats; fourth day of training) [s] | latency to escape, Morris water maze (FIG. 21) (scopolamine treated rats; i.c.v. injections, 8 days of training) | inhibition of HGF-, Nle1-AngIV- and Dihexa-induced spinogenesis by Hinge (hippocampal neurons [6]; Hinge 10^−12 M, HGF 10 ng/ml, Nle1-AngIV or Dihexa 10^−12 M) | effect of Hinge alone on spinogenesis (hippocampal neurons [6]; wide range of doses) | inhibition of MDCK cell scattering by Hinge (MDCK cells [7])
1 | CCCC[C@@H](N)C(=O)N[C@@H](Cc1ccc(O)cc1)C(=O)N[C@H](C(=O)NCCCCCC(N)=O)[C@@H](C)CC (H-[dNle]YI[Ahx]-NH2) | completely block HGF dimer formation | statistically different than the HGF treated group | marked inhibitory activity | 68.2 ± 32.2 | 0.001 ± 0.0002 | 1.333 |  |  |  |  |  |  |  |  |  | 
2 | CCCC[C@@H](N)C(=O)N[C@@H](CS)C(=O)N[C@H](C(=O)NCCCCCC(N)=O)[C@@H](C)CC [D-Nle-Cys-Ile-NH—(CH2)5—CONH2] (H-[dNle]CI[Ahx]-NH2) | completely block HGF dimer formation |  | marked inhibitory activity |  |  |  | statistically different than the HGF treated group | suppressed pulmonary colonization; also recorded: radically prevented lung colonization; also recorded: obvious reduction in melanoma colonies |  |  |  |  |  |  |  | 
3 | Hinge: novel HGF antagonist Hinge (DYIRNC, SEQ ID NO: 3); elsewhere Hinge peptide (KDYIRN), the dimerization domain of HGF (Synthetic hinge peptide) [reference compound] |  |  |  |  |  |  |  |  | 4.51±0.47 | 111.1 | 46.1 | 78.3 | no effect on learning | effectively inhibit spine formation; also recorded: inhibits HGF-induced spinogenesis; also recorded: inhibits Nle1-AngIV-induced spinogenesis; also recorded: inhibits Dihexa-induced spinogenesis | no effect on spinogenesis over a wide range of doses; also recorded: does not affect spinogenesis | inhibit scattering of Madin-Darby canine kidney (MDCK) cells
